Assay results reported in PubChem BioAssay (NCI).
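A five-concentration, 48-hour dose response in 96-well plates underlies each endpoint, interpolated linearly between surrounding concentrations. TGI is the concentration that stops growth completely.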

Columns and labels:
Assay in all cases: NCI tumour cell line growth inhibition, 48 h
EKVX NSCLC = system: EKVX NSCLC
KM12 colon = system: KM12 colon
RXF 393 renal = system: RXF 393 renal
ACHN renal = system: ACHN renal
MDA-MB-231 breast = system: MDA-MB-231 breast
CAKI-1 renal = system: CAKI-1 renal
MDA-MB-435 = system: MDA-MB-435
OVCAR-4 ovarian = system: OVCAR-4 ovarian
NCI-H226 lung = system: NCI-H226 lung
MDA-N = system: MDA-N
SNB-19 CNS = system: SNB-19 CNS
SN12C renal = system: SN12C renal
SW-620 colon = system: SW-620 colon
OVCAR-3 ovarian = system: OVCAR-3 ovarian
SK-MEL-5 melanoma = system: SK-MEL-5 melanoma
U251 CNS = system: U251 CNS
OVCAR-5 ovarian = system: OVCAR-5 ovarian
DU-145 prostate = system: DU-145 prostate
SNB-75 CNS = system: SNB-75 CNS
TK-10 renal = system: TK-10 renal
SF-539 CNS = system: SF-539 CNS
NCI/ADR-RES ovarian = system: NCI/ADR-RES ovarian
OVCAR-8 ovarian = system: OVCAR-8 ovarian
A549 NSCLC = system: A549 NSCLC
SF-295 CNS = system: SF-295 CNS
NCI-H23 lung = system: NCI-H23 lung
SF-268 CNS = system: SF-268 CNS
HT29 colon = system: HT29 colon
HCT-116 colon = system: HCT-116 colon
M14 melanoma = system: M14 melanoma
HOP-92 NSCLC = system: HOP-92 NSCLC
PC-3 prostate = system: PC-3 prostate
IGROV1 ovarian = system: IGROV1 ovarian
HCT-15 colon = system: HCT-15 colon
COLO 205 colon = system: COLO 205 colon
SK-MEL-28 melanoma = system: SK-MEL-28 melanoma
UACC-257 melanoma = system: UACC-257 melanoma
HOP-62 NSCLC = system: HOP-62 NSCLC
MALME-3M melanoma = system: MALME-3M melanoma
BT-549 breast = system: BT-549 breast
SR leukemia = system: SR leukemia
HL-60(TB) leukemia = system: HL-60(TB) leukemia
UO-31 renal = system: UO-31 renal
K-562 leukemia = system: K-562 leukemia
NCI-H460 lung = system: NCI-H460 lung
CCRF-CEM leukemia = system: CCRF-CEM leukemia
HCC-2998 colon = system: HCC-2998 colon
NCI-H522 lung = system: NCI-H522 lung
SK-OV-3 ovarian = system: SK-OV-3 ovarian
MCF7 breast = system: MCF7 breast
LOX IMVI melanoma = system: LOX IMVI melanoma
MOLT-4 leukemia = system: MOLT-4 leukemia
HS 578T breast = system: HS 578T breast
786-0 renal = system: 786-0 renal
SK-MEL-2 melanoma = system: SK-MEL-2 melanoma
RPMI-8226 leukemia = system: RPMI-8226 leukemia
UACC-62 melanoma = system: UACC-62 melanoma
A498 renal = system: A498 renal
T-47D breast = system: T-47D breast

Measured: TGI

CCC1=[N+]([O-])C(C)(C)NC1(C)C
not listed: UACC-257 melanoma | HOP-62 NSCLC | MALME-3M melanoma | BT-549 breast | SR leukemia | HL-60(TB) leukemia | UO-31 renal | K-562 leukemia | NCI-H460 lung | CCRF-CEM leukemia | HCC-2998 colon | NCI-H522 lung | SK-OV-3 ovarian | MCF7 breast | LOX IMVI melanoma | MOLT-4 leukemia | HS 578T breast | 786-0 renal | SK-MEL-2 melanoma | RPMI-8226 leukemia | UACC-62 melanoma | A498 renal | T-47D breast
> 10 µM: all other assays above

O=C(O)C1=NN(c2ccc(S(=O)(=O)O)cc2)C2(C1)SCC(=O)N2c1nc2ccccc2s1 (centres undefined)
not listed: MDA-N
> 100 µM: all other assays above
